Experimental findings from publication PMC4920072, “Peptide:glycosaminoglycan hybrid hydrogels as an injectable intervention for spinal disc degeneration” (Journal of Materials Chemistry. B, Materials for Biology …, 2016) are described below.

Holding throughout (type): physicochemical
Series [1] can be described thus: Visually observed gelation time / physical state of peptide and peptide:GAG samples. To be noted: for Time to gel: peptide concentration = 20 mg/ml, typical gelation times. As to the method: Therefore the GAGs must be directly interacting with the peptides via physical bonds to enhance their gelation.
c.) 200 P11-12 1-9 days Wavenumbers (cm-1) Wavenumbers (cm-1) […]
Figure S1. […]
Peptide GAG ratio Time to gel ( peptide concentration = 20 mg/ml)
P11-4 1:2 Seconds-minutes
Table S1. Typical gelation times in 20mg/ml samples
(also on this page, place not known: (cm -1 ) (cm -1 ) (cm -1 ) Estimated monomer (µM) Aromatic 0 / µM Apparent critical relative integral 0.125 mM TMSP concentration to concentration Seconds-minutesP11-4 SecondsP11-8 SecondsP11-9 P11-12) […]
Figure S3. From left to right P11-12, P11-12:PEG (Mw 10k), P11-12:PEG (Mw 100k). 130 mM NaCl in D2O, PEG added at same wt% as 1:10
Pep:GAG ratio. All samples = liquid

The nature of series [2]: Transmission electron microscopy of peptide and peptide:GAG aggregates. Particulars: TEM, uranyl acetate negative stain; for Twist pitch: peptide alone, 130 mM NaCl in D2O. From the text:
We observe that incorporation of GAGs into peptide hydrogels also modifies their microscopic properties. Transmission electron microscopy images reveal pronounced differences in the fibril morphologies (Fig. 3a and Fig. S2, S3, ESI ^‡). Broadly speaking, the changes in gel structure between peptide-only and peptide:GAG gels are very similar. In peptide-only gels, the fibril widths are of the order of 10 nm. This compares to peptide:GAG gels where the fibrils align and cluster together with bundle diameters of the order of 100 nm. […] Transmission electron microscopy of uranyl acetate stained samples were carried out on a Philips CM10/Jeol JEM1400 electron microscope operating at 80/120 kV. Fourier transform infra-red spectra were acquired with a Thermo Scientific Nicolet 6700 FTIR spectrometer. […] TFA has a FTIR band located at 1673 cm-1 and peptides with greater number of arginine and ornithine residues will contain more TFA and therefore a large TFA peak in the FTIR spectra. Transmission electron microscopy, TEM P11-9 and P11-9:GAG samples were prepared in DPBS (Dubeccos phosphate buffered saline, Sigma Aldrich), solution containing 0.04% NaN3, (Sodium azide, Sigma Aldrich, 99%)to prevent bacterial growth. The samples were vortexed for 20 seconds, and then sonicated for 30 minutes. Solution pH was measured and adjusted to 7.4 ± 0.3. Any adjustment of pH, if necessary, was made with μL volumes of 0.1 to 1 mol dm-3 HCL (Hydrochloric acid, Fisher Scientific, analytical reagent grade, 37% wt diluted with purified water), and/or 0.1 to 1 mol dm-3 NaOH (Sodium hydroxide pellets, Fisher […], analytical grade, dissolved in and diluted with purified water). Solution vials were closed, sealed with PTFE tape, and then warmed to approximately 80 °C to maximise peptide solubility. Following warming GAG powder was added to the peptide solutions and the mixture was vortexed to ensure complete mixing The resulting gels were left to equilibrate for approximately four and a half months. For P11-4, P11-8 and P11-12, samples with and without GAG prepared for FTIR were used, these were left to equillibriate for 4 days prior to TEM grid preparation. The gels were then diluted (20 μl of sample in 60 μl D2O) minutes prior to addition to the TEM grids. Glow discharged carbon film coated copper TEM grids (Agar Scientific) were touched onto the peptide and peptide:gag solutions for one minute. The grid was air-dried and then negatively stained with uranyl acetate solution (2% w/v) for 20 seconds and air-dried. TEM images for P11-4, P11-8 and P11-12, samples with and without GAG were obtained using a Jeol JEM1400 transmission electron microscope operating […] voltage. TEM images of […] with and without GAG were obtained using a Philips CM10 electron microscope operating at 80 kV accelerating voltage. Rheometry Peptide and peptide:GAG samples were prepared in DPBS (Dubeccos phosphate buffered saline, Sigma Aldrich), solution containing 0.04% NaN3 (sodium azide, Sigma Aldrich, 99%). The samples were vortexed for 20 seconds, and then sonicated for 30 minutes. Solution pH was measured and adjusted to 7.4 ± 0.3. Any adjustment of pH, if necessary, was made with μL volumes of 0.1 to 1 mol dm-3 HCL (hydrochloric acid, Fisher Scientific, analytical reagent grade, 37% wt diluted with purified water), and/or 0.1 to 1 mol dm-3 NaOH (Sodium hydroxide pellets, Fisher […], analytical grade, dissolved in and diluted with purified water). Solution vials were closed, sealed with PTFE tape, and then warmed to approximately 80 °C to maximise peptide solubility. Following warming GAG powder was added to the peptide solutions and the mixture was vortexed to ensure complete mixing The resulting gels were left to equilibrate at room temperature (P11-4 20 days, P11-8 1.5 months, P11-9 one month and P11-12 two months). Rheometry measurements used a Malvern Kinexus Pro rheometer with a cone-plate geometry (cone angle: 1O, diameter: 50 mm, gap: 0.033 mm). […]

Series [3] is described as follows: 1H NMR of free peptide monomer concentration (apparent critical aggregation concentration c*, equilibration). To be noted: 1H NMR aromatic region integral relative to TMSP, 130 mM NaCl in D2O, pD 7.4, room temperature. The method, then: NMR characterisation of the free peptide monomer concentration that coexists in equilibrium with the peptide fibrils (and therefore the apparent c*) is found to decrease in the presence of GAG (Fig. 2a and Fig. S1a, ESI ^‡).
The thermodynamics are affected by the presence of GAG.
^1H Nuclear Magnetic Resonance spectra were recorded on a Bruker DPX300 300 MHz spectrometer. Transmission electron microscopy of uranyl acetate stained samples were carried out on a Philips CM10/Jeol JEM1400 electron microscope operating at 80/120 kV. Fourier transform infra-red spectra were acquired with a Thermo Scientific Nicolet 6700 FTIR spectrometer. Rheological measurements used a Malvern Kinexus Pro rheometer with a cone-plate geometry. […]
Peptide and peptide:GAG samples were prepared directly in D2O (Deuterium Oxide, Sigma Aldrich 99.9% D) containing 130 mM NaCl (Sodium Chloride, Fisher Scientific, analytical grade) and […] TMSP (deuterated Sodium 3-(trimethylsilyl)propionate-2,2,3,3-d4, Cambridge Isoptope Labortatories, chemical shift 0 ppm) an internal reference standard. […] Solution pD was measured and adjusted to 7.4 ± 0.3 using the relation pD = pH + 0.4.[1] […]
NMR data were acquired at room temperature with a Bruker DPX 300 spectrometer, operating at 300 MHz (5 mm probe, spectral width 5995 Hz). A presaturation program was used to minimize the water peak, and 1024 scans were measured per spectrum. […]

Setting [4] is: Control (peptide only, no GAG), visually observed, room temperature.
Where [5] appears, read: peptide : GAG ratio 1:2, visually observed, room temperature.
Where [6] appears, read: peptide : GAG ratio 1:10, visually observed, room temperature.
Where [7] appears, read: peptide alone or peptide:GAG 1:10.
Where [8] appears, read: peptide alone or peptide:GAG 1:10, 20 mg/ml, 130 mM NaCl in D2O (P11-9 samples in DPBS).

In the case of Ac-QQRFEWEFEQQ-NH2 [P11-4], the Time to gel entry in series [1] (setting [4]) is listed as “Minutes -hours”; in series [1] (setting [5]) it was “Seconds-minutes”; in series [1] (setting [6]), “Seconds”. In series [2] (setting [7]), the Morphology result is on record as “Twisted fibrils”. In series [2] (setting [8]), this substance registered a Fibril width of 14.6 nm. The Twist pitch in series [2] (20 mg/ml) was 76.6 ± 17.1 nm.

Take CH3CO-Q-Q-R-F-O-W-O-F-E-Q-Q-NH2 [P11-8]: the results for the Time to gel result in series [1] (setting [4]), in series [1] (setting [5]) and in series [1] (setting [6]) were “days”, “seconds” and “Seconds”, respectively. The Morphology result in series [2] (setting [7]) is listed as “Twisted fibrils”. For the same substance, in series [2] (setting [8]), the Fibril width stood at 13.2 nm. The Ribbon width in series [2] (setting [8]) was 5.06 nm. In series [2] (20 mg/ml), this substance had a Twist pitch of 135.2 ± 22.1 nm.

With Ac-SSRFEWEFESS-NH2 [P11-9], the Time to gel entry was “Minutes” in series [1] (setting [4]), “Seconds” in series [1] (setting [5]) and “Seconds” in series [1] (setting [6]). Also, in series [2] (setting [7]), the Morphology entry is listed as “Ribbons”. In series [2] (setting [8]), this substance came in with a Ribbon width of 4 ± 1 nm.

As to “CH3CO-S-S-R-F-O-W-O-F-E-S-S-NH2 [P11-12]”, the “Physical state of sample (gel or liquid)” value in series [1] (130 mM NaCl in D2O, PEG added at same wt% as 1:10 Pep:GAG ratio) was “liquid”. Moreover, the Time to gel result in series [1] (setting [4]) was “Minutes”; in series [1] (setting [5]), “Seconds”; in series [1] (setting [6]) it was “Seconds”; in series [1] (peptide : GAG ratio 1:50, visually observed, room temperature), “Spontaneous”; in series [1] (peptide : GAG ratio 1:100, visually observed, room temperature), “Spontaneous”. The Gelation time entry in series [1] (when higher GAG ratios were used, visually observed, room temperature) was “instantaneously”. Also, the “Time for the monomer concentration to equilibrate” value in series [3] (GAG present at peptide : GAG ratio of 1 : 5) is listed as “less than a week”; in series [3] (peptide only) it was “within two months”. Besides, in series [2] (setting [7]), the Morphology entry was “Twisted fibrils and ribbons”. This substance came in with a Fibril width in series [2] (setting [8]) of 10.1 nm. Moreover, the “Large loose bundle /fibre width” value in series [2] (setting [8]) was 43.7 ± 11.5 nm. In series [2] (setting [8]), this substance registered a Ribbon width of 5.0 ± 0.8 nm. The substance also yielded a Twist pitch in series [2] (20 mg/ml) of 114.3 ± 10.3 nm.
